Laboratory results taken from patent publication US6521623B1, “N,N'-disubstituted benzimidazolone derivatives with affinity at the serotonin and dopamine receptors” (Boehringer Ingelheim Pharma KG, priority 2000, dated 2003).
Like-named read-outs stand apart in the source and are kept apart here.

Tests used:
5-HT1A = target: T1, 5-HT1A (Homo sapiens, UniProt P08908); test: 5HT1A Radioligand Receptor Binding Assay ([3H]-8-OH-DPAT, CHO cell membranes); design: expressed in transfected cells; host or cells: CHO cells; conditions: for 5-HT1A Receptor Binding Assay % inhibition (10^−7 M): compound 10^−7 M, singlicate, [3H]-8-OH-DPAT 0.6-0.7 nM
T1 sequence (P08908 1-422): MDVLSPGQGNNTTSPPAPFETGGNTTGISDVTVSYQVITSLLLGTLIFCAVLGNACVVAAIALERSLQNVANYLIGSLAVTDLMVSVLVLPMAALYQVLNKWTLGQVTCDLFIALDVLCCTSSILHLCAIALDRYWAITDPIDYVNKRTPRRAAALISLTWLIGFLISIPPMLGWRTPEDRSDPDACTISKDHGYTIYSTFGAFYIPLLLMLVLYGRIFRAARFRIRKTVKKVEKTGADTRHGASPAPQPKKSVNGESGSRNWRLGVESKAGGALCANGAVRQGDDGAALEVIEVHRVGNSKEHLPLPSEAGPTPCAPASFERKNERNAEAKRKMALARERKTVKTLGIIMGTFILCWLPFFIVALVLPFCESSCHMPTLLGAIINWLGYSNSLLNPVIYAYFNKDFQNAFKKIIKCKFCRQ
Procedure: 5HT1A Radioligand Receptor Binding Assay
Membranes from CHO cells, expressing 5-HT1A human receptors were suspended in incubation buffer.
Binding assays were performed in MultiProbe 204 pipetting system (Packard), according to a predetermined mapping, consistent with the software Screen. The compounds were tested in singlicate at one concentration (10^−7 M) in a total volume of 1000 μl. 980 μl of diluted membranes, 10 μl DMSO or unlabelled ligand and 10 μl of [^3H]-8-OH-DPAT (0.6-0.7 nM) were incubated for 60 minutes at 27° C. The reaction was stopped by rapid filtration through Tomtec Cell Harvester (48 wells) using Filtermat B (presoaked in 0.1% PEI) filters. Filters were washed with ice-cold 50 mM Tris-HCl (pH 7.4) buffer (9×700 μl), dried, covered with MeltiLex B/HS scintillator sheets (Wallac) and heated at 80° C. to 90° C. for about 10 minutes, transferred into plastic sample bags (Wallac), sealed, and put into 1024 Beta Plate scintillation counter (Wallac). Non-specific binding was determined in the presence of 5-HT (10^−5 M).
The specific radioligand binding to the receptor was defined by the difference between total binding and non-specific binding, determined in the presence of an excess of unlabelled ligand. Results were expressed as percentage of control specific binding obtained in the presence of the compounds. The affinity values (IC50) for the compounds were obtained by a nonlinear least squares regression analysis on the basis of a one binding site model.

D4 human receptors = target: T2, D4 human receptors (Homo sapiens, UniProt P21917); test: D4 Radioligand Receptor Binding Assay ([3H] YM-09151-2, CHO cell membranes); conditions: compound 10^−7 M, singlicate, [3H] YM-09151-2 0.15-0.25 nM
T2 construct: expressed in transfected cells; host or cells: CHO cells
T2 sequence (P21917 1-419): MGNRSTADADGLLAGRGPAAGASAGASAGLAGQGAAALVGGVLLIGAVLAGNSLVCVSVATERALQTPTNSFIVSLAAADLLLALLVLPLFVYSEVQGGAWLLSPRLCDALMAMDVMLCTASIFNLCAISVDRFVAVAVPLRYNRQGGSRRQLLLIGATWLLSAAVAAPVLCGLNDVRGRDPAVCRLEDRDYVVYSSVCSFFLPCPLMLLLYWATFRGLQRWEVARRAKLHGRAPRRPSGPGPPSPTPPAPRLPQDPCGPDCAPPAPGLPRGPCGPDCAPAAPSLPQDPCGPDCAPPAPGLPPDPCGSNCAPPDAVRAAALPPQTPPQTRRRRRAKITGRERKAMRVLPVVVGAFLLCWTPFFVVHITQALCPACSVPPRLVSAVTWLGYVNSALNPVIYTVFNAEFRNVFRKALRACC
Procedure: D4 Radioligand Receptor Binding Assay
Membranes from CHO cells expressing D4 human receptors, were suspended in incubation buffer.
Binding assays were performed in MultiProbe 204 pipetting system (Packard), according to a predetermined mapping, consistent with the software Screen. The compounds were tested in singlicate at one concentration (10^−7 M) in a total volume of 1000 μl (980 μl of diluted membranes, 10 μl DMSO or unlabelled ligand and 10 μl of [^3H] YM-09151-2 (0.15-0.25 nM). After incubation for 120 minutes at 27° C., the reaction was stopped by rapid filtration through Tomtec Cell Harvester (48 wells) using Filtermat B (presoaked in 0.1% PEI) filters. Filters were washed with ice-cold 50 mM Tris-HCl (pH 7.4) buffer (9×700 μl), dried, covered with MeltiLex B/HS (Wallac) scintillator sheets and heated in oven at 80° C. to 90° C. for about 10 minutes, transferred into plastic sample bags (Wallac), sealed, and put into 1024 Beta Plate scintillation counter (Wallac). Non-specific binding was determined in the presence of clozapine dissolved in DMSO to a final concentration of 10^−5 M.
The specific radioligand binding to the receptor was defined by the difference between total binding and non-specific binding, determined in the presence of an excess of unlabelled ligand. Results were expressed as percentage of control specific binding obtained in the presence of the compounds.

[1] = [3H]-8-OH-DPAT, CHO membranes, human 5-HT1A, read-out: 5-HT1A Receptor Binding IC50

SMILES | 5-HT1A Receptor Binding Assay % inhibition (10^−7 M) (5-HT1A; CHO membranes, human 5-HT1A) [%] | D4 Receptor Binding Assay % inhibition (10^−7 M) (D4 human receptors) [%] | IC50 (5-HT1A; [1]) [nM] | IC50 (5-HT1A) [nM]
COCCn1c(=O)n(CCCCN2CCN(c3ccccc3)CC2)c2ccccc21 [Compound 1] | 56 | 38 | – | –
COCCn1c(=O)n(CCCCN2CCc3c([nH]c4ccccc34)C2)c2ccccc21 [Compound 7] | 77 | 91 | – | –
COCCn1c(=O)n(CCCCN2CC=C(c3ccccc3)CC2)c2ccccc21 [Compound 10] | 60 | 47 | – | –
COCCn1c(=O)n(CCCCN2CCN(c3ccc(Cl)c(Cl)c3)CC2)c2ccccc21 [Compound 11] | 48 | 90 | – | –
COCCn1c(=O)n(CCCCN2CCN(c3ccccc3OC)CC2)c2ccccc21 [Compound 19] | 69 | 32 | – | –
O=c1n(CCCCN2CCN(c3ccccc3)CC2)c2ccccc2n1CCN1CCCCC1 [Compound 20] | 50 | 60 | – | –
O=c1n(CCCCN2CCN(c3ccccn3)CC2)c2ccccc2n1CCN1CCCCC1 [Compound 23] | 73 | 48 | – | –
O=c1n(CCCCN2CCN(c3cccc(Cl)c3)CC2)c2ccccc2n1CCN1CCCCC1 [Compound 24] | 90 | 67 | – | –
O=c1n(CCCCN2CCN(c3ncccn3)CC2)c2ccccc2n1CCN1CCCCC1 [Compound 25] | 48 | 44 | – | –
O=c1n(CCCCN2CCc3c([nH]c4ccccc34)C2)c2ccccc2n1CCN1CCCCC1 [Compound 26] | 70 | 94 | – | –
O=c1n(CCCCN2CCN(c3cccc(C(F)(F)F)c3)CC2)c2ccccc2n1CCN1CCCCC1 [Compound 28] | 89 | 35 | – | –
O=c1n(CCCCN2CC=C(c3ccccc3)CC2)c2ccccc2n1CCN1CCCCC1 [Compound 29] | 57 | 83 | – | –
O=c1n(CCCCN2CCN(c3ccc(Cl)c(Cl)c3)CC2)c2ccccc2n1CCN1CCCCC1 [Compound 30] | 44 | 90 | – | –
COc1ccccc1N1CCN(CCCCn2c(=O)n(CCN3CCCCC3)c3ccccc32)CC1 [Compound 38] | 92 | 78 | – | –
O=c1n(CCCCN2CCN(c3ccccc3)CC2)c2ccccc2n1CCN1CCOCC1 [Compound 39] | 36 | 42 | – | –
O=c1n(CCCCN2CCN(c3cccc(Cl)c3)CC2)c2ccccc2n1CCN1CCOCC1 [Compound 43] | 104 | 55 | – | –
O=c1n(CCO)c2ccccc2n1CCCCN1CCN(c2ccccc2)CC1 [Compound 56] | 63 | 71 | – | –
O=c1n(CCO)c2ccccc2n1CCCCN1CCN(c2ccccn2)CC1 [Compound 59] | 75 | 51 | – | –
O=c1n(CCO)c2ccccc2n1CCCCN1CC=C(c2ccccc2)CC1 [Compound 65] | 52 | 74 | – | –
O=c1n(CCO)c2ccccc2n1CCCCN1CCN(c2ccc(Cl)c(Cl)c2)CC1 [Compound 66] | 65 | 99 | – | –
COCCn1c(=O)n(C/C=C/CN2CCN(c3ccccn3)CC2)c2ccccc21 [Compound 296] | – | – | 8.2 | –

SMILES | 5-HT1A Receptor Binding Assay % inhibition (10^−7 M) (5-HT1A; CHO membranes, human 5-HT1A) [%] | D4 Receptor Binding Assay % inhibition (10^−7 M) (D4 human receptors) [%] | IC50 (5-HT1A; [1]) [nM] | IC50 (5-HT1A) [nM]
O=c1n(C/C=C\CN2CCN(c3ccccc3)CC2)c2ccccc2n1CCN1CCCCC1 [Compound 310] | – | – | 15 | –
O=c1n(C/C=C\CN2CCN(c3cccc(C(F)(F)F)c3)CC2)c2ccccc2n1CCN1CCCCC1 [Compound 318] | – | – | 3.1 | –
O=c1n(C/C=C/CN2CCN(c3ccccn3)CC2)c2ccccc2n1CCN1CCCCC1 [Compound 330] | – | – | 7.9 | –
O=c1n(C/C=C/CN2CCc3c([nH]c4ccccc34)C2)c2ccccc2n1CCN1CCCCC1 [Compound 333] | – | – | 16 | –
O=c1n(C/C=C/CN2CCN(c3cccc(C(F)(F)F)c3)CC2)c2ccccc2n1CCN1CCCCC1 [Compound 335] | – | – | 3.5 | –
O=c1n(C/C=C/CN2CCN(c3ccccn3)CC2)c2ccccc2n1CCN1CCOCC1 [Compound 347] | – | – | 13 | –
O=c1n(C/C=C/CN2CCN(c3cccc(C(F)(F)F)c3)CC2)c2ccccc2n1CCN1CCOCC1 [Compound 352] | – | – | 4.1 | –
O=c1n(C/C=C\CN2CCN(c3cccc(C(F)(F)F)c3)CC2)c2ccccc2n1CCO [Compound 369] | – | – | 3.5 | –
O=c1n(C/C=C\CN2CC=C(c3ccccc3)CC2)c2ccccc2n1CCO [Compound 370] | – | – | – | 4.4
O=c1n(C/C=C/CN2CCN(c3ccccn3)CC2)c2ccccc2n1CCO [Compound 381] | – | – | 44 | –
CCNC(=O)OCCn1c(=O)n(C/C=C/CN2CCN(c3ccccn3)CC2)c2ccccc21 [Compound 415] | – | – | 14 | –
CCNC(=O)OCCn1c(=O)n(C/C=C/CN2CCN(c3cccc(Cl)c3)CC2)c2ccccc21 [Compound 416] | – | – | 7.9 | –
CC(=O)NCCn1c(=O)n(CCN2CCN(c3cccc(C)c3C)CC2)c2ccccc21 [Compound 446] | – | – | 7.3 | –
CC(=O)NCCn1c(=O)n(C/C=C\CN2CCN(c3cccc(C(F)(F)F)c3)CC2)c2ccccc21 [Compound 459] | – | – | 8.8 | –
CC(=O)NCCn1c(=O)n(C/C=C\CN2CCN(c3cccc(C)c3C)CC2)c2ccccc21 [Compound 468] | – | – | 3.1 | –
CC(=O)NCCn1c(=O)n(C/C=C\CN2CCN(c3ccccc3Cl)CC2)c2ccccc21 [Compound 472] | – | – | 3.1 | –
CS(=O)(=O)NCCn1c(=O)n(C/C=C\CN2CCN(c3cccc(C(F)(F)F)c3)CC2)c2ccccc21 [Compound 503] | – | – | 2.8 | –
CS(=O)(=O)NCCn1c(=O)n(C/C=C\CN2CC=C(c3ccccc3)CC2)c2ccccc21 [Compound 504] | – | – | – | 3.6
Cc1cccc(N2CCN(C/C=C\Cn3c(=O)n(CCNS(C)(=O)=O)c4ccccc43)CC2)c1C [Compound 512] | – | – | 0.59 | –
CS(=O)(=O)NCCn1c(=O)n(C/C=C/CN2CCN(c3ccccn3)CC2)c2ccccc21 [Compound 520] | – | – | 8.1 | –
Cc1cccc(N2CCN(C/C=C/Cn3c(=O)n(CCNS(C)(=O)=O)c4ccccc43)CC2)c1 [Compound 536] | – | – | 9.5 | –
